19 compounds from patent US20230399312A1, “SUBSTITUTED PYRIMIDINES AND METHODS OF USE” (THERAVANCE BIOPHARMA R&D IP, LLC, priority 2020, published 2023) can be followed below.

pKi: −log10 of the molar value.

Test [1] has as its system TGF-β-stimulated SMAD3 phosphorylation in BEAS-2B cells. Put plainly: Cellular ALK5 potency assay, inhibition of TGF-β stimulated pSMAD3 formation in BEAS-2B cells. The test is classed as cell-based. The note with it: Homo sapiens, pSMAD3, TGF-β 10 ng/mL, read-out: BEAS2B pIC50 (converted). The method, boiled down: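 Potency is expressed as pIC50, based on dose-dependent reduction of TGF-β-induced pSMAD3 AlphaLISA signal relative to stimulated cells without compound. BEAS-2B cells received compound 1 h before a 30 min, 10 ng/mL TGF-β challenge.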

Test [2] addresses T1, recombinant human ALK5 (TGF-βR1) protein (Homo sapiens, UniProt P36897).
T1 construct: purchased Life Technologies PR9075A
T1 sequence (P36897 34-503): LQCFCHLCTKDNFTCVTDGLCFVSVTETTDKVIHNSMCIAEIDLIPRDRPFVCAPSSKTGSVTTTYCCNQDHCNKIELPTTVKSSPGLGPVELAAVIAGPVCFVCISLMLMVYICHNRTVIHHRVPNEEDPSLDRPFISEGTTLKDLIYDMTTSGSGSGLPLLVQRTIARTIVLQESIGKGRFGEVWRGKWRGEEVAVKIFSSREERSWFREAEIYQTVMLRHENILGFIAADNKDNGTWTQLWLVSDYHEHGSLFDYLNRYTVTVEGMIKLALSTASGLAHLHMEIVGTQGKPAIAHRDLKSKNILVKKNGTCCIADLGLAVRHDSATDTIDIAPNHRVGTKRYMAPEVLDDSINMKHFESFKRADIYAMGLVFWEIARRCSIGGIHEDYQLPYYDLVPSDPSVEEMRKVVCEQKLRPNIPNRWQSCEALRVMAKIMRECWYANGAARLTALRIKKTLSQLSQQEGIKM
Put plainly: Biochemical ALK5 (TGF-βR1) assay to measure pKi (LANCE Ultra ULight kinase assay). The note with it: apparent pKi, converted from pIC50 by Cheng-Prusoff. Summed up:
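Dose-response series of each compound were preincubated with the kinase for 60 minutes at room temperature. Phosphorylation proceeded for 60 minutes at 37 °C after ATP addition, was quenched with EDTA, and was detected with a europium anti-phospho-Thr1342 antibody by TR-FRET; pKi was calculated from pIC50.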
(In TR-FRET formats the signal depends on donor and acceptor labels being close together.)

As usually defined, the pKi is −log10 of the Ki, conventionally taken in molar units. Take `Cc1cccc(-c2nccc(Nc3ccnc(Nc4ccc(C(=O)OCCN5CCN6CCCC6C5)nc4)n3)n2)n1` (centres unmarked) [Compound 613, 2-(3,4,6,7,8,8a-hexahydro-1H-pyrrolo[1,2-a]pyrazin-2-yl)ethyl 5-[[4-[[2-(6-methyl-2-pyridyl)pyrimidin-4-yl]amino]pyrimidin-2-yl]amino]pyridine-2-carboxylate]: the IC50 in test [1] is 25.1 to 158 nM. The pKi in test [2] was 8.50 to 9.40.

Consider `Cc1cccc(-c2nccc(Nc3ccnc(Nc4cncc(CN5CC(C(=O)OCC6CNC6)C5)c4)n3)n2)n1` [Compound 614, azetidin-3-ylmethyl 1-[[5-[[4-[[2-(6-methyl-2-pyridyl)pyrimidin-4-yl]amino]pyrimidin-2-yl]amino]-3-pyridyl]methyl]azetidine-3-carboxylate], for which, in test [1], the IC50 is 25.1 to 158 nM. Also, the pKi in test [2] was 9.50 to 10.40.

In the case of `Cc1cccc(-c2nccc(Nc3ccnc(Nc4nc(C(=O)OCC5CCNCC5)cs4)n3)n2)n1` [Compound 615, 4-piperidylmethyl 2-[[4-[[2-(6-methyl-2-pyridyl)pyrimidin-4-yl]amino]pyrimidin-2-yl]amino]thiazole-4-carboxylate], the IC50 in test [1] was 200 to 1260 nM. In addition, in test [2], the pKi was 8.50 to 9.40.

Regarding `Cc1cccc(-c2nccc(Nc3ccnc(Nc4ccnc(C(=O)OCC5CNC5)c4)n3)n2)n1` [Compound 616, azetidin-3-ylmethyl 4-[[4-[[2-(6-methyl-2-pyridyl)pyrimidin-4-yl]amino]pyrimidin-2-yl]amino]pyridine-2-carboxylate], in test [1], the IC50 is 25.1 to 158 nM. Besides, the pKi in test [2] is 8.50 to 9.40.

Regarding `Cc1cccc(-c2nccc(Nc3ccnc(Nc4ccc(C(=O)O[C@H]5CCCNC5)nc4)n3)n2)n1` [Compound 617, [(3S)-3-piperidyl] 5-[[4-[[2-(6-methyl-2-pyridyl)pyrimidin-4-yl]amino]pyrimidin-2-yl]amino]pyridine-2-carboxylate], in test [1], the IC50 was 25.1 to 158 nM. In test [2], the pKi is 9.50 to 10.40.

As to `Cc1cccc(-c2nccc(Nc3ccnc(Nc4cncc(C(=O)OC[C@H]5CCCN5)c4)n3)n2)n1` [Compound 618, [(2R)-pyrrolidin-2-yl]methyl 5-[[4-[[2-(6-methyl-2-pyridyl)pyrimidin-4-yl]amino]pyrimidin-2-yl]amino]pyridine-3-carboxylate], the IC50 in test [1] was 25.1 to 158 nM. For the same compound, the pKi in test [2] is 8.50 to 9.40.

Regarding `Cc1cccc(-c2nccc(Nc3ccnc(Nc4csc(C(=O)OCCN5CCC[C@H](N)C5)c4)n3)n2)n1` [Compound 619, 2-[(3S)-3-amino-1-piperidyl]ethyl 4-[[4-[[2-(6-methyl-2-pyridyl)pyrimidin-4-yl]amino]pyrimidin-2-yl]amino]thiophene-2-carboxylate], in test [1], the IC50 is 25.1 to 158 nM. The negative logarithm of the Ki (pKi) in test [2] was 9.50 to 10.40.

For the compound `Cc1cccc(-c2nccc(Nc3ccnc(Nc4ccc(C(=O)OC[C@H]5CCCNC5)nc4)n3)n2)n1` [Compound 620, [(3S)-3-piperidyl]methyl 5-[[4-[[2-(6-methyl-2-pyridyl)pyrimidin-4-yl]amino]pyrimidin-2-yl]amino]pyridine-2-carboxylate], in test [1], the IC50 was 25.1 to 158 nM. Moreover, the negative logarithm of the Ki (pKi) in test [2] was 9.50 to 10.40.

Turning to `Cc1cccc(-c2nccc(Nc3ccnc(Nc4csc(C(=O)OC[C@@H]5CCC[C@H](N)C5)c4)n3)n2)n1` [Compound 621, [(1R,3S)-3-aminocyclohexyl]methyl 4-[[4-[[2-(6-methyl-2-pyridyl)pyrimidin-4-yl]amino]pyrimidin-2-yl]amino]thiophene-2-carboxylate], the IC50 in test [1] was 25.1 to 158 nM. For the same compound, in test [2], the pKi is 9.50 to 10.40.

For the compound `Cc1cccc(-c2nccc(Nc3ccnc(Nc4ccc(C(=O)OC5CNC5)cn4)n3)n2)n1` [Compound 622, azetidin-3-yl 6-[[4-[[2-(6-methyl-2-pyridyl)pyrimidin-4-yl]amino]pyrimidin-2-yl]amino]pyridine-3-carboxylate], in test [1], the IC50 was 25.1 to 158 nM. Besides, the pKi in test [2] was 7.50 to 8.40.

Regarding `Cc1cccc(-c2nccc(Nc3ccnc(Nc4ncc(C5=CCNCC5)s4)n3)n2)n1` [Compound 623, N4-[2-(6-methyl-2-pyridyl)pyrimidin-4-yl]-N2-[5-(1,2,3,6-tetrahydropyridin-4-yl)thiazol-2-yl]pyrimidine-2,4-diamine], the IC50 in test [1] is 25.1 to 158 nM. The pKi in test [2] was 8.50 to 9.40.

For the compound `Cc1cccc(-c2nccc(Nc3ccnc(Nc4cc(C(=O)OCCN5CCNCC5)ccn4)n3)n2)n1` [Compound 624, 2-piperazin-1-ylethyl 2-[[4-[[2-(6-methyl-2-pyridyl)pyrimidin-4-yl]amino]pyrimidin-2-yl]amino]pyridine-4-carboxylate], the IC50 in test [1] is 200 to 1260 nM. Besides, in test [2], the pKi is 7.50 to 8.40.

As for `Cc1cccc(-c2nccc(Nc3ccnc(Nc4ccc(C(=O)OC[C@@H]5CCCNC5)nc4)n3)n2)n1` [Compound 625, [(3R)-3-piperidyl]methyl 5-[[4-[[2-(6-methyl-2-pyridyl)pyrimidin-4-yl]amino]pyrimidin-2-yl]amino]pyridine-2-carboxylate], the IC50 in test [1] was 25.1 to 158 nM. Besides, the pKi in test [2] is 9.50 to 10.40.

`Cc1cccc(-c2nccc(Nc3ccnc(Nc4nc(C5=CCNC5)cs4)n3)n2)n1` [Compound 626, N2-[4-(2,5-dihydro-1H-pyrrol-3-yl)thiazol-2-yl]-N4-[2-(6-methyl-2-pyridyl)pyrimidin-4-yl]pyrimidine-2,4-diamine]: in test [1], the IC50 is 25.1 to 158 nM. Moreover, the pKi in test [2] was 9.50 to 10.40.

`Cc1cccc(-c2nccc(Nc3ccnc(Nc4csc(C(=O)OCCN5C[C@@H](C)N[C@@H](C)C5)c4)n3)n2)n1` [Compound 627, 2-[(3S,5R)-3,5-dimethylpiperazin-1-yl]ethyl 4-[[4-[[2-(6-methyl-2-pyridyl)pyrimidin-4-yl]amino]pyrimidin-2-yl]amino]thiophene-2-carboxylate]: the IC50 in test [1] is 25.1 to 158 nM. For the same compound, the pKi in test [2] was 9.50 to 10.40.

Consider `Cc1cccc(-c2nccc(Nc3ccnc(Nc4ccc(C(=O)OC[C@H]5CCCCN5)nc4)n3)n2)n1` [Compound 628, [(2R)-2-piperidyl]methyl 5-[[4-[[2-(6-methyl-2-pyridyl)pyrimidin-4-yl]amino]pyrimidin-2-yl]amino]pyridine-2-carboxylate], for which, in test [1], the IC50 was 25.1 to 158 nM. In test [2], the pKi was 9.50 to 10.40.

Turning to `Cc1cccc(-c2nccc(Nc3ccnc(Nc4nc(CN5CC(C(=O)O)C5)cs4)n3)n2)n1` [Compound 629, 1-[[2-[[4-[[2-(6-methyl-2-pyridyl)pyrimidin-4-yl]amino]pyrimidin-2-yl]amino]thiazol-4-yl]methyl]azetidine-3-carboxylic acid], the IC50 in test [1] was 1580 to 10000 nM. The pKi in test [2] is 9.50 to 10.40.

As to `Cc1cccc(-c2nccc(Nc3ccnc(Nc4ncc(C(=O)OC[C@@H]5CCNC5)s4)n3)n2)n1` [Compound 630, [(3R)-pyrrolidin-3-yl]methyl 2-[[4-[[2-(6-methyl-2-pyridyl)pyrimidin-4-yl]amino]pyrimidin-2-yl]amino]thiazole-5-carboxylate], in test [1], the IC50 is 200 to 1260 nM. In addition, the pKi in test [2] was 7.50 to 8.40.

Consider `Cc1cccc(-c2nccc(Nc3ccnc(Nc4csc(C(=O)O[C@H]5C[C@@H](N)C5)c4)n3)n2)n1` [Compound 631, (3-aminocyclobutyl) 4-[[4-[[2-(6-methyl-2-pyridyl)pyrimidin-4-yl]amino]pyrimidin-2-yl]amino]thiophene-2-carboxylate], for which, in test [1], the IC50 was 25.1 to 158 nM. In addition, in test [2], the pKi is 9.50 to 10.40.
